The text below walks through data of US11826375B2, “Phosphinic amide prodrugs of tenofovir” (Merck Sharp & Dohme LLC, priority 2018, dated 2023).

The subject of the first data set is HIV-1. The data set can be described thus: Human PBMC based HIV-1 replication assay. The note with it: Human immunodeficiency virus 1, PBMC, PHA-activated human PBMCs, 24 h preincubation with compound, infected with GFP-encoding HIV-1 construct. The data set is classed as cell-based. As to the method:
Assessing Antiviral Potency in a Human PBMC Based HIV-1 Replication Assay
The antiviral activity of the tenofovir prodrugs of the Examples herein was assessed in a human peripheral blood mononuclear cell (PBMC) based HIV-1 replication assay and performed as follows. Human PBMCs were treated with PHA ([…]) in RPMI 1640 medium containing 10% heat inactivated FBS for 2 to 3 days. Compound plates were prepared by dispensing compounds dissolved in DMSO into wells of 384 well poly-D-lysine-coated plates (0.2 μl/well) using an ECHO acoustic dispenser. Each compound was tested in a 10-point serial 3-fold dilution (typical final concentrations: 5.0 μM-0.1 nM). Controls included no inhibitor (DMSO only) and a combination of three antiviral agents (efavirenz, indinavir, an in-house integrase strand transfer inhibitor at final concentrations of 4 μM each). PHA-activated human PBMCs were added to the compound plates and incubated for 24 hours at 37° C./5% CO2/90% relative humidity. The PBMCs were then infected with an HIV-1 construct that encodes Green Fluorescence Protein (GFP) and the infected cells were incubated at 37° C./5% CO2/90% relative humidity for additional 24 hours.
Infected cells were quantified by counting the number of green cells in each well using an Acumen eX3 scanner. IC50 values were determined by non-linear 4-parameter curve fitting.
Regarding `CCCOC(=O)C(C)(C)NP(=O)(CO[C@H](C)Cn1cnc2c(N)ncnc21)C(C#N)C#N` (single isomer, unassigned) [Example 6A], the half-inhibitory concentration (IC50) – broadly, the point on the concentration scale where inhibition reaches its midpoint – is greater than 2100 nM. Consider `CCCOC(=O)C(C)(C)NP(=O)(CO[C@H](C)Cn1cnc2c(N)ncnc21)CC(=O)OC(C)C` (single isomer, unassigned) [Example 3A], for which the half-maximal inhibitory concentration (IC50) was determined as 189 nM.

Take `CCCOC(=O)C(C)(C)NP(=O)(CO[C@H](C)Cn1cnc2c(N)ncnc21)C(C#N)C(=O)OC(C)C` (stereo partly drawn) [Example 1, Propyl 2-((((R)-1-(6-amino-9H-purin-9-yl)propan-2-yloxy)methyl)(1-cyano-2-isopropoxy-2-oxoethyl)phosphorylamino)-2-methylpropanoate]: the half-inhibitory concentration (IC50) came out at 1520 nM. Take `CCCOC(=O)C(C)(C)NP(=O)(CC#N)CO[C@H](C)Cn1cnc2c(N)ncnc21` (stereo partly drawn) [Example 4, Propyl 2-((((R)-1-(6-amino-9H-purin-9-yl)propan-2-yloxy)methyl)(cyanomethyl)phosphorylamino)-2-methylpropanoate]: the IC50 is greater than 2100 nM. For the molecule `CCCOC(=O)C(C)(C)NP(=O)(CO[C@H](C)Cn1cnc2c(N)ncnc21)Cc1ccccc1` (stereo partly drawn) [Example 9, Propyl 2-((((R)-1-(6-amino-9H-purin-9-yl)propan-2-yloxy)methyl)(benzyl)phosphorylamino)-2-methylpropanoate], the half-inhibitory concentration (IC50) is 965 nM. As for `CCCOC(=O)C(C)(C)NP(=O)(CO[C@H](C)Cn1cnc2c(N)ncnc21)C(C(=O)OC(C)C)c1ccccc1` (stereo partly drawn) [Example 5, Propyl 2-((((R)-1-(6-amino-9H-purin-9-yl)propan-2-yloxy)methyl)(2-isopropoxy-2-oxo-1-phenylethyl)phosphorylamino)-2-methylpropanoate], the IC50 came out at 58.8 nM.

Take `CCCOC(=O)C(C)(C)NP(=O)(CO[C@H](C)Cn1cnc2c(N)ncnc21)CC(=O)OC(C)(C)C` (stereo partly drawn) [Example 8, Propyl 2-((((R)-1-(6-amino-9H-purin-9-yl)propan-2-yloxy)methyl)(2-tert-butoxy-2-oxoethyl)phosphorylamino)-2-methylpropanoate]: the IC50 is greater than 2100 nM.

Still in this data set, the particulars now being: PHA-activated human PBMCs, 24 h preincubation with compound, infected with GFP-encoding HIV-1 construct.
In the case of `CCCOC(=O)C(C)(C)NP(=O)(CO[C@H](C)Cn1cnc2c(N)ncnc21)C(C(=O)OC(C)C)C(=O)OC(C)C` (single isomer, unassigned) [Example 2B], the half-maximal inhibitory concentration (IC50) was 6.8 nM. Take `CCCOC(=O)C(C)(C)NP(=O)(CO[C@H](C)Cn1cnc2c(N)ncnc21)C(C#N)C#N` (single isomer, unassigned) [Example 6B]: the IC50 is greater than 2100 nM. Still for that read-out and setting: in the case of `CCCOC(=O)C(C)(C)NP(=O)(CO[C@H](C)Cn1cnc2c(N)ncnc21)C(C(=O)OC(C)C)C(=O)OC(C)C` (single isomer, unassigned) [Example 2A] it was 73.9 nM; in that of `CCCOC(=O)C(C)(C)NP(=O)(CO[C@H](C)Cn1cnc2c(N)ncnc21)CC(=O)OC(C)C` (single isomer, unassigned) [Example 3B], 226 nM.

In the case of `CCCOC(=O)C(C)(C)NP(=O)(CO[C@H](C)Cn1cnc2c(N)ncnc21)CC(=O)N(CC)CC` (single isomer, unassigned) [Example 7A], the IC50 was found to be 931 nM.

For the molecule `CCCOC(=O)C(C)(C)NP(=O)(CO[C@H](C)Cn1cnc2c(N)ncnc21)CC(=O)N(CC)CC` (single isomer, unassigned) [Example 7B], the IC50 was greater than 2100 nM.

Test system in another data set: not listed separately
The data set can be described thus: Prodrug stability assay in bio-relevant media (Pancreatin solution in FaSSIF). The note with it: HPLC peak area of prodrug at 5 h / 0 h, 0.5 mg/mL Pancreatin in FaSSIF, 37° C. The data set is classed as in vitro ADME. As for the experimental part: Prodrug Stability Assay in Bio-Relevant Media
The following assay was employed to evaluate the stability of the prodrugs in simulated gastrointestinal tract conditions. Preparation of fasted state simulated intestinal fluid (FaSSIF) using Phares SIF Powder was carried out according to protocols from Phare Drug Delivery AG (Baselland, Switzerland). For sample preparation, 10 μL stock solutions (10 mM) of prodrug substance in DMSO was added to 990 μL of 0.5 mg/mL Pancreatin solution (Fisher CAS #8049-47-6) in FaSSIF. Two samples were prepared for each compound. If the sample was a clear solution, it was directly analyzed by HPLC. If the sample was not clear, the sample was diluted with 100% MeCN, maintained at 37° C. and observed 5 h later. If the sample was clear, HPLC analysis was directly performed. If the sample was still not clear, the sample was diluted with 100% ACN and assayed by HPLC. All the samples were vortexed for 3 min and observed before injection. For the diluted samples, the area is multiplied by a dilution factor when the data is analyzed. The analysis was carried out with an Agilent 1100 series HPLC with autosampler. The column was a Poroshell 120 EC-C18, 4.6×50 mm, 2.7 μm. The flow rate was 1.8 mL/min, and the injection volume was 5 or 10 μL. UV detection was in the range 210-400 nm. […]
Take `CCCOC(=O)C(C)(C)NP(=O)(CO[C@H](C)Cn1cnc2c(N)ncnc21)C(C(=O)OC(C)C)C(=O)OC(C)C` (single isomer, unassigned) [Example 2B]: the “GI Tract stability” value is 87.2%.
